# What was measured:
# [1] = Liver toxicity on chronic administration; assay type: in vivo; conditions: 100 mpk/d for 4 wks, all animal models tested
# [2] = target: T1, microsomal triglyceride transfer protein (MTP) (Bos taurus, UniProt P55156); experiment: MTP activity, purified bovine MTP; assay type: biochemical; conditions: relatively weak potency
# T1 sequence (P55156 12-887): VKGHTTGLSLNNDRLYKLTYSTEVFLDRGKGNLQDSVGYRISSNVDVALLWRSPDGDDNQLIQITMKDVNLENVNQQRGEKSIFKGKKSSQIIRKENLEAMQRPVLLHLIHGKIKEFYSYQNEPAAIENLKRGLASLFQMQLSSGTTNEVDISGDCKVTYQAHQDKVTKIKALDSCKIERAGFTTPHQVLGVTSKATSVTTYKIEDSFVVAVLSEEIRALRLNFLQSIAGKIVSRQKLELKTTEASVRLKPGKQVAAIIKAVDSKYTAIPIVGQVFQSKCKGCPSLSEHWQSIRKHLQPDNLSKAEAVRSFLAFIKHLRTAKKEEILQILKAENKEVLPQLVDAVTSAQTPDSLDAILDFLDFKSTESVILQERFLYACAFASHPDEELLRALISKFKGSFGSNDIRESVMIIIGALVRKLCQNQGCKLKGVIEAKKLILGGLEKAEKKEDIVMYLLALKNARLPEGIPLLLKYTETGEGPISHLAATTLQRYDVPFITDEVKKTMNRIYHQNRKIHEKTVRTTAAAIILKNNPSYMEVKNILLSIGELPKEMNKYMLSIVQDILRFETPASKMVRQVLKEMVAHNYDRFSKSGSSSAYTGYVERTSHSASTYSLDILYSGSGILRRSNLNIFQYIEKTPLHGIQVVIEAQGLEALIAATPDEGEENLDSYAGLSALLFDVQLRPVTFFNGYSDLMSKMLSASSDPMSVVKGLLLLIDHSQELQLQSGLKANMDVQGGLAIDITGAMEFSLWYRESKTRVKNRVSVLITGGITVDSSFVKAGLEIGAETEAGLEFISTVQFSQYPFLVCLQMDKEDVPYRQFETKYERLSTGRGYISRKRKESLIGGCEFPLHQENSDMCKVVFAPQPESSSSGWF
# T1 sequence (P05307 21-510 partner): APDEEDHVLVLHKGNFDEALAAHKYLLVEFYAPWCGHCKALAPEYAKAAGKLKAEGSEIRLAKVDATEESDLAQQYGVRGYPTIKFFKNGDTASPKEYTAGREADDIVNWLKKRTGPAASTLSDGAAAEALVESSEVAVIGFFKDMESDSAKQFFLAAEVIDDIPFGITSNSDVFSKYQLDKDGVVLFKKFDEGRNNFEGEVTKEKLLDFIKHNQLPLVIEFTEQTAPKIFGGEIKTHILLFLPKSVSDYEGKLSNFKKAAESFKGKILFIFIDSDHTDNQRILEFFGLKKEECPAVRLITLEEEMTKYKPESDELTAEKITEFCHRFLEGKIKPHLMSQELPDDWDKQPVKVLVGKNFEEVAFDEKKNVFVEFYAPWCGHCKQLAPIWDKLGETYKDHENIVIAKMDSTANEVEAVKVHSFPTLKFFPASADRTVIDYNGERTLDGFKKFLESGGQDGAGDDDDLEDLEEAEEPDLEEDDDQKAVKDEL
# [3] = target: T2, microsomal triglyceride transfer protein (MTP) (Rattus norvegicus, UniProt D4A1W8); experiment: MTP activity, rat liver microsomal extracts; assay type: biochemical; conditions: rat liver microsomal extracts at 100 mpk dosing in vivo; relatively weak potency
# T2 construct: rat liver microsomal extracts; from tissue; host or cells: rat liver microsomal extracts
# T2 sequence (D4A1W8 22-896): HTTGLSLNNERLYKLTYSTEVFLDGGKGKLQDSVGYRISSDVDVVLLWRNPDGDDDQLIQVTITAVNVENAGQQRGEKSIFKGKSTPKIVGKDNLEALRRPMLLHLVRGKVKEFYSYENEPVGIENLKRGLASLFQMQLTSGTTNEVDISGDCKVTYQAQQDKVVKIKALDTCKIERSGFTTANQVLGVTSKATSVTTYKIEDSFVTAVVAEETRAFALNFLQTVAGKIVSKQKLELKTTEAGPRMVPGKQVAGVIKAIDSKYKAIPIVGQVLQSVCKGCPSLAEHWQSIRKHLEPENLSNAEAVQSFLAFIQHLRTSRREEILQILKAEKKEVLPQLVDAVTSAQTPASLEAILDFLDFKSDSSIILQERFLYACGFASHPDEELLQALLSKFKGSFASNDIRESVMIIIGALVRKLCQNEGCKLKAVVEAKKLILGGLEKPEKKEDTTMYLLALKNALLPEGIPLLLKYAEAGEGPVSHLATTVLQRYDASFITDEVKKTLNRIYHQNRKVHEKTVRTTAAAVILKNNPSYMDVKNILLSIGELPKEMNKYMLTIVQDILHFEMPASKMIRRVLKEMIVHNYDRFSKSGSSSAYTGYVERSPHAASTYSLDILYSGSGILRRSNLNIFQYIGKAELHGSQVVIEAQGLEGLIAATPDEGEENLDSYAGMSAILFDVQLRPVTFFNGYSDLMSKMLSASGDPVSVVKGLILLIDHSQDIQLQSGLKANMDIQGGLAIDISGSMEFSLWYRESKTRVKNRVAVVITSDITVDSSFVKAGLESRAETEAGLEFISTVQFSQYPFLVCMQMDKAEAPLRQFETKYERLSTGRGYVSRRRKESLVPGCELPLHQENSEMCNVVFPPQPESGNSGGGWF
# T2 sequence (P04785 20-509 partner): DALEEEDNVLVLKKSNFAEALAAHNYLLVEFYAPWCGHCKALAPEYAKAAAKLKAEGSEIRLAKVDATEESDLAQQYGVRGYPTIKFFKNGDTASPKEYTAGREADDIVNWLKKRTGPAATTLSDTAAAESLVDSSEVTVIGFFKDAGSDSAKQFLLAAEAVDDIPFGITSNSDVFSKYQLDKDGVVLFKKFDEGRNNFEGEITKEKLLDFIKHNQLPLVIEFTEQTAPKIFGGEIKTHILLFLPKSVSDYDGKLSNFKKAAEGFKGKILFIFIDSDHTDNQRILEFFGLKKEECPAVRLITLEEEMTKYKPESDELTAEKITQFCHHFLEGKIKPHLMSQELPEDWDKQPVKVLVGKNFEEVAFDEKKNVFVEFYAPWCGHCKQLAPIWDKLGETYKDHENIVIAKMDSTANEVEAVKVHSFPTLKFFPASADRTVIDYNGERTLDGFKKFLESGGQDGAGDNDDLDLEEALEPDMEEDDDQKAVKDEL
# leptin-deficient ob mice = experiment: ob/ob mice (hyperphagic obesity) on normal diet treated 4 weeks; assay type: in vivo
# Protocol: (§1) To assess the effects of D6D inhibition on structures and processes related to cardiometabolic diseases and disorders, the following experiments were conducted. Animal studies have reported evidence of increased D6D activity in rodent models of CMD (e.g., increase in AA/LA in tissue phospholipids), making them reasonable models for studying the role of D6D in its pathogenesis. To probe the effect of D6D directly, the compound SC-26196, a selective D6D inhibitor was orally administered by admixing the SC-26196 in the food mixtures of the rodent models of CMD at a dosage of about 100 mg/kg/day for four weeks. The rodent models of CMD used in these experiments included a murine model of hyperphagic obesity (leptin-deficient ob mice) and a diet-induced insulin resistance model (normal C57BI/6 mice fed a high-fat “Western” diet) for 8 weeks prior to participation in any experiments.
# Initially, the effects of D6D inhibition in conjunction with a normal diet were assessed. 4 mo old ob/ob mice were administered the selective D6D inhibitor SC-26196 (100 mg/kg/d mixed in chow) for 4 weeks (ob/ob+D6D−; n=12). The ob mice treated with SC-26196 for four weeks (ob+SC) were compared to untreated ob mice (ob) and normal C57BI/6 mice (BI/6). FIGS. 3A-C summarizes the results of this comparison. […] As summarized in FIG. 7, treatment with SC-26196 normalized responses to a glucose tolerance test, decreased serum insulin, and reduced hepatic macrophage (MΦ) content and ser-307 phosphorylation of IRS-1, the canonical cellular mechanism of hepatic insulin resistance resulting from inflammatory signaling. As summarized in FIGS. 8A and 8B, treatment with SC-26196 reduced the hepatic PC/PE ratio in the treated ob mice. FIG. 9 illustrates that SC-26196 treatment normalized the cardiac phospholipid/cardiolipin composition in the treated ob mice.
# ob mice = ob mice on high fat/sucrose Western diet; assay type: in vivo
# Protocol: as §1
# To assess the interaction of a high-fat Western diet with the effects of D6D inhibition, the following experiment was conducted. The ob mice and the BI/6 mice were maintained on a high fat/sucrose Western diet and part of each group was treated with SC-26196 in a similar manner as described above. The treated and untreated ob and BI/6 mice were compared. FIGS. 4A-4B summarize the results of this experiment.
# LDLR -/- mice = experiment: LDL receptor-lacking mice on Western diet; assay type: in vivo
# Excerpt: (§2) Mice lacking LDL receptors (LDLR −/−) were similarly maintained on a high fat/sucrose Western diet and treated with SC-26196 in a similar manner as described above. As summarized in FIG. 5, SC-26196 treatment ameliorated hyperlipidemia and atherosclerosis in mice lacking LDL receptors fed the Western diet. The treatment also attenuated cardiac dysfunction, pathologic hypertrophy and fibrosis in mice subjected to thoracic aortic banding (TAC) or chronic hypertension (HF), as summarized in FIG. 6.
# [4] = test system: cardiac dysfunction, hypertrophy, fibrosis; experiment: Thoracic aortic banding (TAC) or chronic hypertension (HF) model; assay type: in vivo, mice
# Excerpt: as §2
# delta-6 desaturase (D6D) [5] = conditions: cited from earlier work
# delta-6 desaturase (D6D) [6] = target: T3, delta-6 desaturase (D6D) (Mus musculus, UniProt Q9Z0R9); conditions: cited from earlier work
# T3 construct: host or cells: endogenous enzyme of the dosed animal
# T3 sequence (Q9Z0R9 1-444): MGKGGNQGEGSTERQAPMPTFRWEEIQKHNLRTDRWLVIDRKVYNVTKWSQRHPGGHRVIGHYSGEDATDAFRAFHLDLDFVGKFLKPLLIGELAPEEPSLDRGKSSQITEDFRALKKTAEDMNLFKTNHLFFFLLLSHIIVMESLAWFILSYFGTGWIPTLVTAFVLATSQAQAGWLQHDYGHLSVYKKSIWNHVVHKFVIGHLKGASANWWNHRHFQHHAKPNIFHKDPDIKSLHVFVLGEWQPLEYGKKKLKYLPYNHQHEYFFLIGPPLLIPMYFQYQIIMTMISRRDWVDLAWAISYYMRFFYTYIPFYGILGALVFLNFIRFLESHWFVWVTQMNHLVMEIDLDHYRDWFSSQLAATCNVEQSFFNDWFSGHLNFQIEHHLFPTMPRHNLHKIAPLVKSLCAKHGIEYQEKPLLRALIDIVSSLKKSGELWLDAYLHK
# [7] = cited from earlier work
# tissue AA/LA ratios = conditions: cited from earlier work
# [8] = ob mice, normal diet, 100 mg/kg/d
# [9] = ob/ob mice, cardiac, 100 mg/kg/d, vs lean C57BI/6
# [10] = 100 mpk/d mixed in mouse chow, 4 weeks
smiles,measurement,setting,value
"N#CC(CCCN1CCN(/N=C/c2cccnc2)CC1)(c1ccccc1)c1ccccc1 [SC-26196, (E)-2,2-Diphenyl-5-{4-[(pyridin-3-yl-methylene)amino]piperazin-1-yl}pentanenitrile]",hepatomegaly,[1],significant hepatomegaly
same,MTP activity,[2],inhibited MTP activity
same,MTP activity,[3],inhibited MTP activity
same,ser-307 phosphorylation of IRS-1,"leptin-deficient ob mice; ob mice, liver, normal diet, 100 mg/kg/d",reduced
same,cardiac oxidative stress,leptin-deficient ob mice; [8],reduced
same,cardiac phospholipid/cardiolipin composition,leptin-deficient ob mice; [8],normalized
same,eicosanoid species in heart tissue,leptin-deficient ob mice; [8],abolished significant increases
same,eicosanoid species in serum,leptin-deficient ob mice; [8],abolished significant increases
same,hepatic PC/PE ratio,leptin-deficient ob mice; [8],reduced
same,hepatic macrophage content,leptin-deficient ob mice; [8],reduced
same,responses to a glucose tolerance test,leptin-deficient ob mice; [8],normalized
same,serum insulin,leptin-deficient ob mice; [8],decreased
same,"phospholipid AA/LA ratio of serum, liver, heart and muscle tissue","leptin-deficient ob mice; ob mice, normal diet, 100 mg/kg/d in chow",reversed significant elevations
same,cardiac cardiolipin profile,"leptin-deficient ob mice; ob/ob mice, 100 mg/kg/d in chow, vs lean C57BI/6",to levels similar to those in lean age-matched control mice
same,membrane peroxidizability index,leptin-deficient ob mice; [9],to levels similar to those in lean age-matched control mice
same,phospholipid D6D activity index (20:4/18:2 ratio),leptin-deficient ob mice; [9],to levels similar to those in lean age-matched control mice
same,phospholipid DHA content,leptin-deficient ob mice; [9],to levels similar to those in lean age-matched control mice
same,fasting blood glucose,ob mice,reduced
same,responses to a glucose tolerance test,ob mice,normalized
same,serum insulin levels,ob mice,normalized 8-fold elevations
same,atherosclerosis,LDLR -/- mice,ameliorated
same,hyperlipidemia,LDLR -/- mice,ameliorated
same,cardiac dysfunction,[4],attenuated
same,fibrosis,[4],attenuated
same,pathologic hypertrophy,[4],attenuated
same,selectivity for D6D over other desaturase enzymes,delta-6 desaturase (D6D) [5],potent selectivity
same,IC50,delta-6 desaturase (D6D) [5]; in vitro,200 nM
same,inhibition of D6D enzymatic activity in vivo,"delta-6 desaturase (D6D) [6]; 100 mg/kg b.i.d., i.g. over a 24 hr period",about 65%
same,oral activity,delta-6 desaturase (D6D) [6]; at 100 mpk,oral activity
same,Peak plasma levels,[7]; 100 mpk ig dosing,2 µM
same,half-life,[7]; 100 mpk ig dosing,1.2 h
same,bioavailability,"[7]; 100 mpk ig, based on AUC calculations",about 60%
same,effect in a model of acute inflammation,tissue AA/LA ratios; [10],protective effects
same,tissue AA/LA ratios,tissue AA/LA ratios; [10],reduced
same,reversing elevations of tissue AA/LA associated with acute inflammation,"tissue AA/LA ratios; lower doses, 50 and 75 mpk/d, 4 wks",ineffective
